# Measurements from US12129504B2, “Caproate-producing bacterium with multiple substrate utilization capabilities and its applications” (Jiangnan University, priority 2021, dated 2024).
# Key:
# [1] = cited from earlier work
# [2] = tested on: Oscillospiraceae sp. LBM10036; assay: Tolerance of the strain to toxicity of caproic acid: growth (OD600) in liquid mediums with different initial concentrations of caproic acid; type: cell-based
# Source text: A brewing environment of Strong aroma-type Baijiu is characterized by a low pH, and the lower the pH, the higher the content of free caproic acid in a system. Free caproic acid can cause toxicity to bacterial cells, therefore, the stronger the tolerance of bacterial cells to the toxicity of caproic acid, the more favorable it is for the survival of the bacterial cells in a system. The growth of the Oscillospiraceae sp. LBM10036 was tracked and measured by designing liquid mediums with different initial concentrations of caproic acid.
# The medium contains (calculated in g/L): glucose 20.0, yeast powder 10.0, peptone 10.0, dipotassium hydrogen phosphate 1.0, potassium dihydrogen phosphate 0.5, ammonium sulfate 2.0, magnesium sulfate 0.1, and a cosubstrate 5.0, as well as a trace element nutrient solution 0.15-1.0 (mL/L). The cosubstrate is one or both of acetate and butyrate. The trace element nutrient solution contains (calculated in g/L): calcium chloride 10, cobalt chloride 10, zinc sulfate 10, manganese sulfate 10, and ferrous sulfate heptahydrate 15. The pH of the medium is 5.5, and the medium was sterilized at 115° C. for 30 min.
# The dissolved medium was divided into 5 blue cap bottles (100 mL), each blue cap bottle containing 100 mL of medium. Before sterilization, the initial concentrations of caproic acid in the mediums were adjusted to 0 g/L, 1 g/L, 2 g/L, 3 g/L, and 4 g/L using a caproic acid standard. At this point, the initial concentrations of free caproic acid in the mediums were 0 g/L, 0.19 g/L, 0.37 g/L, 0.56 g/L, and 0.75 g/L, respectively. The mediums were sterilized at 115° C. for 30 min. After sterilization, the medium of each initial concentration gradient of caproic acid was divided into 3 parts, each part containing 30 mL in a 50 mL centrifuge tube. The residual mediums were taken out of an anaerobic incubator for re-determining the pH and initial concentrations of total caproic acid, and calculating whether the actual concentrations of free caproic acid meet the experimental design.
# (1) An Oscillospiraceae sp. LBM10036 frozen glycerol tube was taken out from a −80° C. refrigerator, activated for cultivation for the first generation at 37° C. in the modified Clostridium growth medium prepared in (1) step 1 until the OD600 was 1.5-2.0 to obtain a first generation seed solution, and then the first generation seed solution was transferred to a fresh modified Clostridium growth medium at an inoculum concentration of 5% (v/v) and activated for the second generation cultivation at 37° C. for 12-18 h until the OD600 was 1.5-2.0 to obtain a second generation seed solution.
# (2) 100 mL of the modified Clostridium growth medium described in step (1) was inoculated with the second generation seed solution obtained in step (1) at an inoculum concentration of 5% (v/v) and cultivated until the OD value was 1.5-2.0, to obtain a culture solution.
# (3) The mediums with different initial concentration gradients of caproic acid prepared in (2) of step 1 were inoculated with the prepared culture solution at an inoculum concentration of 5% (v/v). The medium of each initial concentration gradient of caproic acid had 3 replicates, and sampled from 0 to 72 h at an interval of 12 h. The maximum specific growth rates under different initial concentration gradients of caproic acid were plotted (as shown in FIG. 4).
compound,measurement,setting,value
CCCCCC(=O)O [caproic acid],pKa,[1],4.86
same,growth of Oscillospiraceae sp.,[2]; caproic acid 4 g/L (free caproic acid 0.75 g/L),significantly inhibited
same,concentration of free caproic acid at the maximum tolerable initial concentration,[2]; free caproic acid calculated from pH 5.5 and pKa 4.86,0.56 g/L
same,OD600,"[2]; initial caproic acid 1 g/L, 0 h, medium pH 5.5",0.26 ± 0.00
same,OD600,"[2]; initial caproic acid 1 g/L, 12 h, medium pH 5.5",0.53 ± 0.02
same,OD600,"[2]; initial caproic acid 1 g/L, 24 h, medium pH 5.5",1.96 ± 0.17
same,OD600,"[2]; initial caproic acid 1 g/L, 48 h, medium pH 5.5",2.39 ± 0.20
same,OD600,"[2]; initial caproic acid 1 g/L, 72 h, medium pH 5.5",2.25 ± 0.32
same,OD600,"[2]; initial caproic acid 2 g/L, 0 h, medium pH 5.5",0.27 ± 0.01
same,OD600,"[2]; initial caproic acid 2 g/L, 12 h, medium pH 5.5",0.30 ± 0.02
same,OD600,"[2]; initial caproic acid 2 g/L, 24 h, medium pH 5.5",1.06 ± 0.37
same,OD600,"[2]; initial caproic acid 2 g/L, 48 h, medium pH 5.5",2.00 ± 0.10
same,OD600,"[2]; initial caproic acid 2 g/L, 72 h, medium pH 5.5",1.72 ± 0.17
same,OD600,"[2]; initial caproic acid 3 g/L, 0 h, medium pH 5.5",0.26 ± 0.01
same,OD600,"[2]; initial caproic acid 3 g/L, 12 h, medium pH 5.5",0.69 ± 0.06
same,OD600,"[2]; initial caproic acid 3 g/L, 24 h, medium pH 5.5",0.88 ± 0.07
same,OD600,"[2]; initial caproic acid 3 g/L, 48 h, medium pH 5.5",1.46 ± 0.07
same,OD600,"[2]; initial caproic acid 3 g/L, 72 h, medium pH 5.5",1.44 ± 0.05
same,OD600,"[2]; initial caproic acid 4 g/L, 0 h, medium pH 5.5",0.23 ± 0.01
same,OD600,"[2]; initial caproic acid 4 g/L, 12 h, medium pH 5.5",0.22 ± 0.01
same,OD600,"[2]; initial caproic acid 4 g/L, 24 h, medium pH 5.5",0.20 ± 0.01
same,OD600,"[2]; initial caproic acid 4 g/L, 48 h, medium pH 5.5",0.21 ± 0.04
same,OD600,"[2]; initial caproic acid 4 g/L, 72 h, medium pH 5.5",0.20 ± 0.02
same,maximum tolerable initial concentration of caproic acid,"[2]; total caproic acid, medium pH 5.5",3 g/L
